Measurements reported in patent US10308595B2, “Albicidin derivatives, their use and synthesis” (priority 2013, dated 2019).
Like-named read-outs stand apart in the source and are kept apart here.

Legend:
Assay type in all cases: cell-based
Bacillus subtilis DSM10 = assay: Test agar plates (disc diffusion), diameter of inhibition area; settings: for Antibacterial activity, diameter of inhibition area, Bacillus subtilis DSM 10: 10 μl per test disc, "—" no activity detected; for zone of inhibition at 1000 µg/mL: Bacillus subtilis, DSM10, 18 h, read-out: diameter of inhibition, Bacillus subtilis DSM10
Method: (§1) The dry compounds were dissolved in DMSO (1 mg/ml) and the so obtained stock solution was diluted with sterilized Millipore water 1:10 and 1:100
(§2) 20 μl of cryo stock of each strain were inoculated to 20 ml of Mueller-Hinton medium and grown overnight at 30° C. or 37° C. on a vertical shaker with 160 rpm. The inoculum for the test was adjusted by the 0.5 McFarland Standard (OD625 from 0.08 to 0.1)
Bacillus subtilis DSM10 [gram. Pos.] Medium: MHB/30° C.
(§3) Every plate is prepared by pouring 10 ml Mueller-Hinton agar into standard petri dishes (diam 94 mm). The so obtained Mueller-Hinton plates are overlayed with 4 ml Mueller-Hinton soft agar containing 100 μl suspension of the test strain.
(§4) After the soft agar turned solid, sterile susceptibility test discs were circular placed on the agar and on every test disc 10 μl compound was added. Each concentration is tested in triplicate. The agar dishes were incubated for 18 hours at a temperature of 30° C. or 37° C. Results are obtained by measuring the diameter of inhibition area around each test disc.

Bacillus megaterium = assay: as above; settings: 10 μl per test disc, "—" no activity detected
Method: as §1, §2
Bacillus megaterium [gram. Pos.] Medium: MHB/30° C.
as §3, §4

[1] = system: Mycobacterium phlei DSM750; assay: as above; settings: concentration 1 mg/ml; 10 μl per test disc; "—" no activity detected
Method: as §1, §2
Mycobacterium phlei DSM750 [gram. Pos.] Medium: MHB/30° C.
as §3, §4

[2] = system: Micrococcus luteus DSM1790; assay: as above; settings: for Antibacterial activity, diameter of inhibition area, Micrococcus luteus: 10 μl per test disc, "—" no activity detected; for zone of inhibition at 1000 µg/mL: Micrococcus luteus, DSM1790, 18 h, read-out: diameter of inhibition, Micrococcus luteus DSM1790
Method: as §1, §2
Micrococcus luteus DSM1790 [gram. Pos.] Medium: MHB/37° C.
as §3, §4

[3] = system: Escherichia coli K12 (W1130); assay: as above; settings: 10 μl per test disc, "—" no activity detected
Method: as §1, §2
Escherichia coli K12 (W1130) [gram. Neg.] Medium: MHB/37° C.
as §3, §4

[4] = system: Staphylococcus aureus DSM 2569; assay: as above; settings: DSM2569, 18 h, read-out: diameter of inhibition, Staphylococcus aureus DSM 2569
Method: as §1, §2
Staphylococcus aureus DSM 2569 [gram. Pos.] Medium: MHB/37° C.
as §3, §4

[5] = system: Pseudomonas aeruginosa DSM1117; assay: as above; settings: DSM1117, 18 h, read-out: diameter of inhibition, Pseudomonas aeruginosa DSM1117
Method: as §1, §2
Pseudomonas aeruginosa DSM1117 [gram. Neg.] Medium: MHB/37° C.
as §3, §4

[6] = system: Escherichia coli albi-res (Montpellier); assay: as above; settings: 18 h, read-out: diameter of inhibition, Escherichia coli albi-res (Montpellier)
Method: as §1, §2
Escherichia coli albi-res (Montpellier) [gram. Neg.] Medium: MHB/37° C.
as §3, §4

Escherichia coli DH5α = assay: as above; settings: 18 h, read-out: diameter of inhibition, Escherichia coli DH5α
Method: as §1, §2
Escherichia coli DH5α [gram. Neg.] Medium: MHB/37° C.
as §3, §4

[7] = system: Escherichia coli (ATCC 25922, 100-2-49 and 100-2-56); assay: EN-ISO standard test (ISO 20776-1), MIC
Method: (§5) Furthermore, compounds were tested against the following bacteria
(§6) according to EN-ISO standard (ISO 20776-1: 2006. Clinical laboratory testing and in vitro diagnostic test systems—Susceptibility testing of infectious agents and evaluation of performance of antimicrobial susceptibility test devices—Part 1:Reference method for testing the in vitro activity of antimicrobial agents against rapidly growing aerobic bacteria involved in infectious diseases; German version EN ISO 20776-1:2006. Beuth-Verlag, Berlin).

[8] = system: Staphylococcus aureus (ATCC 29213); assay: EN-ISO standard test (ISO 20776-1), MIC
Method: as §5, §6

[9] = system: Staphylococcus aureus (PEG 10-38-22); assay: EN-ISO standard test (ISO 20776-1), MIC
Method: as §5, §6

[10] = system: Salmonella enteritidis (PEG-10-3-58); assay: EN-ISO standard test (ISO 20776-1), MIC
Method: as §5
Salmonella enteritidis (PEG-10-3-58),
as §6

[11] = system: Pseudomonas aeruginosa (ATCC 27853); assay: EN-ISO standard test (ISO 20776-1), MIC
Method: as §5
(§7) Pseudomonas aeruginosa (ATCC 27853 and PEG-10-2-61)
as §6

[12] = system: Pseudomonas aeruginosa (PEG-10-2-61); assay: EN-ISO standard test (ISO 20776-1), MIC
Method: as §5, §7, §6

[13] = system: test strains of the agar plate tests; assay: Test agar plates, control substance in the same tests (strains not named individually); settings: active substance 1 mg/ml
Method: as §1, §2, §3, §4
Test Agar Plates (Active Substance 1 mg/ml) Control Substance: […]

[14] = test agar plates, active substance 1 mg/ml, more than 1 cm or more than 3.9 cm [sic]
[15] = test agar plates, active substance 1 mg/ml, "more than 1 cm and more than 2 cm" [sic]
[16] = test agar plates, active substance 1 mg/ml, more than 1 cm or more than 2 cm

| SMILES | zone of inhibition at 1000 µg/mL (Bacillus subtilis DSM10; [14]) [mm] | zone of inhibition at 1000 µg/mL [2, 15] [mm] | zone of inhibition at 1000 µg/mL [4, 15] [mm] | zone of inhibition at 1000 µg/mL [5, 16] [mm] | zone of inhibition at 1000 µg/mL [6, 16] [mm] | zone of inhibition at 1000 µg/mL (Escherichia coli DH5α; [16]) [mm] | MIC values (minimal inhibitory concentration), in words [7] | MIC values, in words [8] | MIC values, in words [9] | MIC values, in words [10] | MIC values, in words [11] | MIC values, in words [12] | zone of inhibition at 1000 µg/mL [6] [mm] | also measured |
| --- | --- | --- | --- | --- | --- | --- | --- | --- | --- | --- | --- | --- | --- | --- |
| COc1c(NC(=O)c2ccc(NC(=O)c3ccc(NC(=O)[C@H](CC#N)NC(=O)c4ccc(NC(=O)/C(C)=C/c5ccc(O)cc5)cc4)cc3)c(OC)c2O)ccc(C(=O)O)c1O [A, beta-Albicidin] |  |  |  |  |  |  |  |  |  |  |  |  |  | Antibacterial activity, diameter of inhibition area, Bacillus subtilis DSM 10 (Bacillus subtilis DSM10; concentration 0.1 mg/ml): 1.4; Antibacterial activity, diameter of inhibition area, Bacillus subtilis DSM 10 (Bacillus subtilis DSM10; concentration 1 mg/ml): 2.8; Antibacterial activity, diameter of inhibition area, Bacillus megaterium (Bacillus megaterium; concentration 0.1 mg/ml): 1.2; Antibacterial activity, diameter of inhibition area, Bacillus megaterium (Bacillus megaterium; concentration 1 mg/ml): 2.0; Antibacterial activity, diameter of inhibition area, Mycobacterium phlei DSM 750 [1]: 1.5; Antibacterial activity, diameter of inhibition area, Micrococcus luteus ([2]; concentration 0.1 mg/ml): 2.0; Antibacterial activity, diameter of inhibition area, Micrococcus luteus ([2]; concentration 1 mg/ml): 2.8; Antibacterial activity, diameter of inhibition area, Escherichia coli K12 (W1130) ([3]; concentration 0.1 mg/ml): 1.9; Antibacterial activity, diameter of inhibition area, Escherichia coli K12 (W1130) ([3]; concentration 1 mg/ml): 2.6 |
| CN[C@@H]1[C@@H](O[C@H]2O[C@H](CO)[C@@H](N)[C@H](O)[C@H]2O)OC2C[C@@H](N)[C@@H](O[C@H]3[C@H](O)[C@@H](O)[C@H](N)C[C@@H]3N)OC2[C@@H]1O (stereo partly shown) [Apramycin, reference compound] |  |  |  |  |  |  |  |  |  |  |  |  |  | Antibacterial activity, diameter of inhibition area, Bacillus subtilis DSM 10 (Bacillus subtilis DSM10; concentration 1 mg/ml): 2.0; Antibacterial activity, diameter of inhibition area, Bacillus megaterium (Bacillus megaterium; concentration 1 mg/ml): 3.5; Antibacterial activity, diameter of inhibition area, Mycobacterium phlei DSM 750 [1]: 2.2; Antibacterial activity, diameter of inhibition area, Micrococcus luteus ([2]; concentration 1 mg/ml): 1.8; Antibacterial activity, diameter of inhibition area, Escherichia coli K12 (W1130) ([3]; concentration 1 mg/ml): 1.7 |
| COc1c(NC(=O)c2ccc(NC(=O)c3ccc(NC(=O)C(CC#N)NC(=O)c4ccc(NC(=O)/C(C)=C/c5ccc(F)cc5)cc4)cc3)c(OC)c2O)ccc(C(=O)O)c1O (stereo not shown) [Compound 1] | > 10 | > 10 | > 10 | > 10 | > 10 | > 10 | good to very good | good to very good | good to very good | good to very good | good to very good | good to very good |  |  |
| COc1c(NC(=O)c2ccc(NC(=O)c3ccc(NC(=O)C(CC#N)NC(=O)c4ccc(NC(=O)/C=C/c5ccc6c(c5)OCO6)cc4)cc3)c(OC)c2O)ccc(C(=O)O)c1O (stereo not shown) [Compound 5] | > 10 | > 10 | > 10 | > 10 | > 10 | > 10 | good to very good | good to very good | good to very good | good to very good | good to very good | good to very good |  |  |
| COc1c(NC(=O)c2ccc(NC(=O)c3ccc(NC(=O)C(CC#N)NC(=O)c4ccc(NC(=O)c5cscn5)cc4)cc3)c(OC)c2O)ccc(C(=O)O)c1O (stereo not shown) [Compound 16] | > 10 | > 10 | > 10 |  | > 10 | > 10 | good to very good |  |  | good to very good |  |  |  |  |
| COc1c(NC(=O)c2ccc(NC(=O)c3ccc(NC(=O)C(CC#N)NC(=O)c4ccc(NC(=O)COc5ccccc5)cc4)cc3)c(OC)c2O)ccc(C(=O)O)c1O (stereo not shown) [Compound 30] |  |  |  |  |  |  | good to very good | good to very good |  | good to very good | good to very good |  | > 10 | zone of inhibition at 1000 µg/mL (Bacillus subtilis DSM10): > 10 mm; zone of inhibition at 1000 µg/mL [2]: > 10 mm; zone of inhibition at 1000 µg/mL [4]: > 10 mm; zone of inhibition at 1000 µg/mL [5]: > 10 mm; zone of inhibition at 1000 µg/mL (Escherichia coli DH5α): > 10 mm |
| COc1c(NC(=O)c2ccc(NC(=O)c3ccc(NC(=O)C(CC#N)NC(=O)c4ccc(NC(=O)C5CCCCC5)cc4)cc3)c(OC)c2O)ccc(C(=O)O)c1O (stereo not shown) [Compound 35] | > 10 |  | > 10 | > 10 |  | > 10 | good to very good |  |  | good to very good | good to very good |  | > 10 |  |
| COc1c(NC(=O)c2ccc(NC(=O)c3ccc(NC(=O)C(CC#N)NC(=O)c4ccc(NC(=O)C5C6CC7CC(C6)CC5C7)cc4)cc3)c(OC)c2O)ccc(C(=O)O)c1O (stereo not shown) [Compound 36] | > 10 | > 10 | > 10 | > 10 |  | > 10 | good to very good | good to very good | good to very good | good to very good | good to very good | good to very good | > 10 |  |
| COc1c(NC(=O)c2ccc(NC(=O)c3ccc(NC(=O)[C@H](CC#N)NC(=O)c4ccc(NC(=O)/C(C)=C/c5ccc(O)cc5)cc4)cc3)c(OC)c2O)ccc(C(=O)O)c1O [Natural albicidin, Albicidin] |  |  |  |  |  |  |  |  |  |  |  |  |  | diameter of inhibition, control substance in the same tests [13]: more than 1 cm |
